From patent publication US20250368595A1, “NOVEL MOLECULES” (XENIOPRO GmbH, priority 2018, published 2025)

What was measured:
C2C12 cells = assay: alamarBlue proliferation assay with C2C12 cells; format: cell-based, murine
Source text: (§1) The antiproliferative activities of compounds falling under formula (Ia), (Ib) and (Ic), respectively, were investigated on cells or cell lines originating from a disorder of the haematopoietic system, including the myeloid cell compartment and the lymphoid cell compartment (T-cells and B-cells), the neuroendocrine system, the cervix, the breast, the ovaries, the lung, the gastrointestinal tract, and the mucosal epithelium, as well as from the skin epithelium and from the muscle. To this end, HL-60 cells, NB-4 cells, HH cells, RPMI-8402 cells, TANQUE cells, TT cells, HeLa cells, MDA-MB-231 cells, FU-OV-1 cells, LOU-NH91 cells, 23132/87 cells, CAL-27 cells, BHY cells, SCC-25 cells, A-431 cells, human primary epidermal keratinocytes (HPEK), and C2C12 cells were seeded into 96-well plates suitable for fluorescence assays (CORNING #3598) at following initial cell numbers: 1000 cells per well for HL-60; 1000 cells per well for NB-4; 5000 cells per well for HH; 5000 cells per well for RPMI-8402; 1500 cells per well for TANOUE; 9000 cells per well for TT; 2000 cells per well for HeLa; 3000 cells per well for MDA-MB-231; 3000 cells per well for FU-OV-1; 4000 cells per well for LOU-NH91; 2000 cells per well for 23132/87; 2000 cells per well for CAL-27; 1500 cells per well for BHY; 1500 cells per well for SCC-25; 700 cells per well for A-431; 1000 cells per well for HPEK; 500 cells per well for C2C12. […] The readout was taken with a multi-well plate-reader in the fluorescence mode with applying a filter for excitation at 560 nm (band width 10 nm) and for emission at 590 nm (band width 10 nm). […]
(§2) The assays were performed in duplicate or more replicates of independent single experiments each containing a six-fold replicate for every condition. For every individual plate, the measured fluorescence intensity values of the conditions with compound treatment were normalized • against the corresponding equally weighted arithmetic mean of the fluorescence intensity values of the six DMSO treated control wells in order to obtain the relative values to a baseline level of 1.0. […]

BHY cells = assay: alamarBlue proliferation assay with BHY cells; format: cell-based, human; details: relative to DMSO basis level 1.0
Source text: as §1, §2

FU-OV-1 cells = assay: alamarBlue proliferation assay with FU-OV-1 cells; format: cell-based, human; details: relative to DMSO basis level 1.0
Source text: as §1, §2

NB-4 cells = assay: alamarBlue proliferation assay with NB-4 cells; format: cell-based, human; details: relative to DMSO basis level 1.0
Source text: as §1, §2

RPMI-8402 cells = assay: alamarBlue proliferation assay with RPMI-8402 cells; format: cell-based, human; details: relative to DMSO basis level 1.0
Source text: as §1, §2

HH cells = assay: alamarBlue proliferation assay with HH cells; format: cell-based, human; details: relative to DMSO basis level 1.0
Source text: as §1, §2

MDA-MB-231 cells = assay: alamarBlue proliferation assay with MDA-MB-231 cells; format: cell-based, human; details: 20 μM, relative to DMSO basis level 1.0
Source text: The antiproliferative activities of compounds falling under formula (Ia), (Ib) and (Ic), respectively, were investigated on cells or cell lines originating from a disorder of the haematopoietic system, including the myeloid cell compartment and the lymphoid cell compartment (T-cells and B-cells), the neuroendocrine system, the cervix, the breast, the ovaries, the lung, the gastrointestinal tract, and the mucosal epithelium, as well as from the skin epithelium and from the muscle. […] The readout was taken with a multi-well plate-reader in the fluorescence mode with applying a filter for excitation at 560 nm (band width 10 nm) and for emission at 590 nm (band width 10 nm). […]
as §2

HPEKp cells = assay: alamarBlue proliferation assay with HPEKp cells; format: cell-based, human
Source text: as §1, §2

A-431 cells = assay: alamarBlue proliferation assay with A-431 cells; format: cell-based, human
Source text: as §1, §2

SCC-25 cells = assay: alamarBlue proliferation assay with SCC-25 cells; format: cell-based, human
Source text: as §1, §2

LOU-NH91 cells = assay: alamarBlue proliferation assay with LOU-NH91 cells; format: cell-based, human; details: relative to DMSO basis level 1.0
Source text: as §1, §2

TANOUE cells = assay: alamarBlue proliferation assay with TANOUE cells; format: cell-based, human; details: relative to DMSO basis level 1.0
Source text: as §1, §2

HeLa cells = assay: alamarBlue proliferation assay with HeLa cells; format: cell-based, human; details: relative to DMSO basis level 1.0
Source text: as §1, §2

23132/87 cells = assay: alamarBlue proliferation assay with 23132/87 cells; format: cell-based, human; details: relative to DMSO basis level 1.0
Source text: as §1, §2

CAL-27 cells = assay: alamarBlue proliferation assay with CAL-27 cells; format: cell-based, human; details: relative to DMSO basis level 1.0
Source text: as §1, §2

TT cells = assay: alamarBlue proliferation assay with TT cells; format: cell-based, human; details: relative to DMSO basis level 1.0
Source text: as §1, §2

HL-60 cells = assay: alamarBlue proliferation assay with HL-60 cells; format: cell-based, human; details: relative to DMSO basis level 1.0
Source text: as §1, §2

Row | Compound | Activity Range: weighted arithmetic mean (AVEw) of normalized fluorescence intensity, relative to DMSO basis level of 1.0 (C2C12 cells; 20 μM) | Activity Range: weighted arithmetic mean (AVEw) of normalized fluorescence intensity (BHY cells; 20 μM) | Activity Range: weighted arithmetic mean (AVEw) of normalized fluorescence intensity (FU-OV-1 cells; 20 μM) | Activity Range: weighted arithmetic mean (AVEw) of normalized fluorescence intensity (NB-4 cells; 20 μM) | Activity Range: weighted arithmetic mean (AVEw) of normalized fluorescence intensity (RPMI-8402 cells; 20 μM) | Activity Range: weighted arithmetic mean (AVEw) of normalized fluorescence intensity (HH cells; 20 μM) | Activity Range: weighted arithmetic mean (AVEw) of normalized fluorescence intensity (MDA-MB-231 cells) | Activity Range: weighted arithmetic mean (AVEw) of normalized fluorescence intensity, relative to DMSO basis level of 1.0 (HPEKp cells; control at 20 μM) | Activity Range: weighted arithmetic mean (AVEw) of normalized fluorescence intensity, relative to DMSO basis level of 1.0 (A-431 cells; 20 μM) | Activity Range: weighted arithmetic mean (AVEw) of normalized fluorescence intensity, relative to DMSO basis level of 1.0 (SCC-25 cells; 20 μM) | Activity Range: weighted arithmetic mean (AVEw) of normalized fluorescence intensity (LOU-NH91 cells; 20 μM) | Activity Range: weighted arithmetic mean (AVEw) of normalized fluorescence intensity (TANOUE cells; 20 μM) | Activity Range: weighted arithmetic mean (AVEw) of normalized fluorescence intensity (HeLa cells; 20 μM) | Activity Range: weighted arithmetic mean (AVEw) of normalized fluorescence intensity (23132/87 cells; 20 μM) | Activity Range: weighted arithmetic mean (AVEw) of normalized fluorescence intensity (CAL-27 cells; 20 μM) | Activity Range: weighted arithmetic mean (AVEw) of normalized fluorescence intensity (TT cells; 20 μM) | Activity Range: weighted arithmetic mean (AVEw) of normalized fluorescence intensity (HL-60 cells; 20 μM) | further results
1 | Oc1ccc(C=Cc2cc(O)cc(O)c2)cc1 [RES, Resveratrol] | 0.8 ± 0.0 | 0.5 ± 0.1 | 0.7 ± 0.0 | 0.1 ± 0.0 | 0.6 ± 0.0 | 0.6 ± 0.1 | 0.6 ± 0.0 | 0.2 ± 0.0 | 0.6 ± 0.1 | 0.4 ± 0.1 | 0.9 ± 0.1 | 0.1 ± 0.0 | 0.9 ± 0.0 | 0.5 ± 0.1 | 0.8 ± 0.1 | 0.9 ± 0.0 | 0.4 ± 0.1 | Activity Range: weighted arithmetic mean (AVEw) of normalized fluorescence intensity, relative to DMSO basis level of 1.0 (C2C12 cells; control at 40 μM): 0.2 ± 0.1; Activity Range: weighted arithmetic mean (AVEw) of normalized fluorescence intensity (BHY cells; control at 40 μM): 0.3 ± 0.0; Activity Range: weighted arithmetic mean (AVEw) of normalized fluorescence intensity (FU-OV-1 cells; control at 40 μM): 0.4 ± 0.0; Activity Range: weighted arithmetic mean (AVEw) of normalized fluorescence intensity (NB-4 cells; control at 40 μM): 0.0 ± 0.0; Activity Range: weighted arithmetic mean (AVEw) of normalized fluorescence intensity (RPMI-8402 cells; control at 40 μM): 0.1 ± 0.0; Activity Range: weighted arithmetic mean (AVEw) of normalized fluorescence intensity (HH cells; control at 40 μM): 0.4 ± 0.1; Activity Range: weighted arithmetic mean (AVEw) of normalized fluorescence intensity, relative to DMSO basis level of 1.0 (HPEKp cells; control at 40 μM): 0.2 ± 0.0; Activity Range: weighted arithmetic mean (AVEw) of normalized fluorescence intensity, relative to DMSO basis level of 1.0 (A-431 cells; control at 40 μM): 0.2 ± 0.0; Activity Range: weighted arithmetic mean (AVEw) of normalized fluorescence intensity, relative to DMSO basis level of 1.0 (SCC-25 cells; control at 40 μM): 0.1 ± 0.0; Activity Range: weighted arithmetic mean (AVEw) of normalized fluorescence intensity (LOU-NH91 cells; control at 40 μM): 0.7 ± 0.0; Activity Range: weighted arithmetic mean (AVEw) of normalized fluorescence intensity (TANOUE cells; control at 40 μM): 0.0 ± 0.0; Activity Range: weighted arithmetic mean (AVEw) of normalized fluorescence intensity (HeLa cells; control at 40 μM): 0.4 ± 0.1; Activity Range: weighted arithmetic mean (AVEw) of normalized fluorescence intensity (23132/87 cells; control at 40 μM): 0.2 ± 0.0; Activity Range: weighted arithmetic mean (AVEw) of normalized fluorescence intensity (CAL-27 cells; control at 40 μM): 0.4 ± 0.3; Activity Range: weighted arithmetic mean (AVEw) of normalized fluorescence intensity (TT cells; control at 40 μM): 0.7 ± 0.0; Activity Range: weighted arithmetic mean (AVEw) of normalized fluorescence intensity (HL-60 cells; control at 40 μM): 0.2 ± 0.1
2 | CN(Cc1cnc2nc(N)nc(N)c2n1)c1ccc(C(=O)N[C@@H](CCC(=O)O)C(=O)O)cc1 [MTREX, Methotrexate] | 0.1 ± 0.0 | 0.3 ± 0.0 | 1.0 ± 0.0 | 0.1 ± 0.0 | 0.1 ± 0.0 | 0.4 ± 0.1 | 0.6 ± 0.0 | 0.9 ± 0.0 | 0.2 ± 0.1 | 0.5 ± 0.1 | 0.5 ± 0.1 | 0.1 ± 0.0 | 0.4 ± 0.0 | 0.3 ± 0.0 | 0.1 ± 0.0 | 1.0 ± 0.0 | 0.1 ± 0.1 | –
